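96-well plates; 48 h exposure; 5 concentrations. Endpoints by linear interpolation between flanking doses. Not reached: highest tested concentration assigned. GI50 is the concentration that inhibits growth by half.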 Activity calls are given as the source filed them. Rule as the data show it: active = GI50 up to about 1.1 µM and inactive = higher.
Key:
Assay in all cases: DTP human tumour cell line panel, 48 h
RPMI-8226 = system: RPMI-8226
Malme-3M = system: Malme-3M
SW-620 = system: SW-620
HCT-116 = system: HCT-116
EKVX = system: EKVX
HT-29 = system: HT-29
SK-MEL-2 = system: SK-MEL-2
PC-3 = system: PC-3
A549 = system: A549
NCI/ADR-RES = system: NCI/ADR-RES
SR = system: SR
MDA-MB-435 = system: MDA-MB-435
NCI-H226 = system: NCI-H226
SF-295 = system: SF-295
TK-10 = system: TK-10
SF-268 = system: SF-268
BT-549 = system: BT-549
OVCAR-4 = system: OVCAR-4
SN12C = system: SN12C
CCRF-CEM = system: CCRF-CEM

SMILES | GI50 (RPMI-8226) | GI50 (Malme-3M) | GI50 (SW-620) | GI50 (HCT-116) | GI50 (EKVX) | GI50 (HT-29) | GI50 (SK-MEL-2) | GI50 (PC-3) | GI50 (A549) | GI50 (NCI/ADR-RES) | GI50 (SR) | GI50 (MDA-MB-435) | GI50 (NCI-H226) | GI50 (SF-295) | GI50 (TK-10) | GI50 (SF-268) | GI50 (BT-549) | GI50 (OVCAR-4) | GI50 (SN12C) | GI50 (CCRF-CEM)
NCC(O)CN.Oc1c(Cl)c(Cl)c(Cl)c(Cl)c1Cl | 22.8 µM (inactive) | 17.5 µM (inactive) | 25.2 µM (inactive) | 18.2 µM (inactive) | 14.8 µM (inactive) | 17.8 µM (inactive) | 22.5 µM (inactive) | 22 µM (inactive) | 18.7 µM (inactive) | 18.1 µM (inactive) | 25.5 µM (inactive) | 34.4 µM (inactive) | 18 µM (inactive) | 17.6 µM (inactive) | 24.5 µM (inactive) | 29.2 µM (inactive) | 24 µM (inactive) | 35.9 µM (inactive) | 20.3 µM (inactive) | 
O=C(OCC12CC3CC(CC(C3)C1)C2)c1ccc(NCc2cc(O)ccc2O)cc1 | 0.199 µM (active) |  | 3.02 µM (inactive) | 2.26 µM (inactive) | 2.7 µM (inactive) | 1.47 µM (inactive) | 2.5 µM (inactive) | 0.713 µM (active) | 2.67 µM (inactive) | 1.47 µM (inactive) |  | 1.99 µM (inactive) | 1.77 µM (inactive) | 3.76 µM (inactive) | 1.99 µM (inactive) | 3.27 µM (inactive) | 0.331 µM (active) | 1.05 µM (active) | 2.57 µM (inactive) | 0.0547 µM (active)
N#CC12C(=O)N3C(=NC(c4ccccc4)NC3c3ccccc3)C1(C#N)C(c1ccccc1)NC1=C2CCC1 (stereo not given) | > 100 µM (inactive) | > 100 µM (inactive) | > 100 µM (inactive) | > 100 µM (inactive) | > 100 µM (inactive) | > 100 µM (inactive) | > 100 µM (inactive) | > 100 µM (inactive) | > 100 µM (inactive) | > 100 µM (inactive) |  | > 100 µM (inactive) | > 100 µM (inactive) | > 100 µM (inactive) | > 100 µM (inactive) | > 100 µM (inactive) | > 100 µM (inactive) | > 100 µM (inactive) | > 100 µM (inactive) | > 100 µM (inactive)
O=C(NCc1ccccc1Cl)c1c(O)c2ccccc2[nH]c1=O | 57.8 µM (inactive) | > 100 µM (inactive) | 24.9 µM (inactive) | 27.2 µM (inactive) | > 100 µM (inactive) | 54.5 µM (inactive) |  | 64.9 µM (inactive) | 77.8 µM (inactive) | 12.2 µM (inactive) | > 100 µM (inactive) | 36 µM (inactive) | 44.7 µM (inactive) | 33.4 µM (inactive) | 56.4 µM (inactive) | 72.1 µM (inactive) | 34.9 µM (inactive) | 8.53 µM (inactive) | > 100 µM (inactive) | > 100 µM (inactive)
CC1=C(c2ccc(C)cc2)NC(=S)C(C)C(c2ccc(C)cc2)=N1 (stereo not given) | 40.6 µM (inactive) | 59 µM (inactive) | > 100 µM (inactive) | 58.5 µM (inactive) | 56.6 µM (inactive) | 65.6 µM (inactive) |  |  | 81.5 µM (inactive) | > 100 µM (inactive) | > 10 µM (inactive) | 72.9 µM (inactive) | > 100 µM (inactive) | 67.6 µM (inactive) | > 100 µM (inactive) | > 100 µM (inactive) | 72.3 µM (inactive) | > 100 µM (inactive) | > 100 µM (inactive) | 27.2 µM (inactive)
O=C(CN1CCN(c2ccccc2)CC1)c1ccc2[nH]c(=O)oc2c1 | > 100 µM (inactive) | > 100 µM (inactive) | > 100 µM (inactive) | > 100 µM (inactive) | > 100 µM (inactive) | > 100 µM (inactive) | > 100 µM (inactive) | > 100 µM (inactive) |  | 49.5 µM (inactive) | > 100 µM (inactive) | > 100 µM (inactive) | > 100 µM (inactive) | > 100 µM (inactive) | > 100 µM (inactive) | > 100 µM (inactive) | > 100 µM (inactive) |  | > 100 µM (inactive) | > 100 µM (inactive)
COP(=O)(CC(=O)C1OC(OCc2ccccc2)C(OCc2ccccc2)C(OCc2ccccc2)C1OCc1ccccc1)OC (stereo not given) |  | 9.1 µM (inactive) | 12.8 µM (inactive) | 5.11 µM (inactive) | 8.07 µM (inactive) | 6.19 µM (inactive) | 3.22 µM (inactive) | 5.01 µM (inactive) | 5.57 µM (inactive) | 4.16 µM (inactive) | 3.26 µM (inactive) | 5.38 µM (inactive) | 4.91 µM (inactive) | 5.36 µM (inactive) | 15.3 µM (inactive) | 12.8 µM (inactive) | 17.4 µM (inactive) | 2.19 µM (inactive) | 3 µM (inactive) | 4.76 µM (inactive)
Nc1n[nH]c2c(C(=O)Nc3ccc(Cl)cc3)c(N)n(N)c(=O)c12 | > 100 µM (inactive) | > 100 µM (inactive) | > 100 µM (inactive) | > 100 µM (inactive) | > 100 µM (inactive) | > 100 µM (inactive) | > 100 µM (inactive) | > 100 µM (inactive) | > 100 µM (inactive) | > 100 µM (inactive) | > 100 µM (inactive) | > 100 µM (inactive) | > 100 µM (inactive) |  | > 100 µM (inactive) | > 100 µM (inactive) | > 100 µM (inactive) | > 100 µM (inactive) | > 100 µM (inactive) | > 100 µM (inactive)
c1csc(-c2cc(-c3cccs3)c(-c3cccs3)s2)c1 |  | 62.2 µM (inactive) | > 100 µM (inactive) | 40.9 µM (inactive) | 55.8 µM (inactive) | 39.3 µM (inactive) |  | > 100 µM (inactive) | > 100 µM (inactive) | > 100 µM (inactive) | 51.1 µM (inactive) | 37.8 µM (inactive) | > 100 µM (inactive) | > 100 µM (inactive) | > 100 µM (inactive) | > 100 µM (inactive) | > 100 µM (inactive) | > 100 µM (inactive) | > 100 µM (inactive) | 35.6 µM (inactive)
CCCN(CCC)C(=S)N/N=C(/C)c1ccccc1O | 4.33 µM (inactive) | 3.2 µM (inactive) | 5.55 µM (inactive) | 4.04 µM (inactive) | 6.31 µM (inactive) | 6.28 µM (inactive) | 6.7 µM (inactive) | 5.94 µM (inactive) | 5.64 µM (inactive) | 1.57 µM (inactive) | 3.06 µM (inactive) | 8.38 µM (inactive) |  | 6.41 µM (inactive) | 6.19 µM (inactive) | 4.42 µM (inactive) | 5.25 µM (inactive) | 5.96 µM (inactive) | 5.82 µM (inactive) | 2.96 µM (inactive)
Cc1c(S(=O)(=O)/N=C(\NN)Nc2ccc(Cl)cc2)sc2ccc(Cl)cc12 | 27.9 µM (inactive) | 22.3 µM (inactive) | 24 µM (inactive) | 13.3 µM (inactive) | 13.9 µM (inactive) | 16.6 µM (inactive) | 16.3 µM (inactive) | 15.5 µM (inactive) | 16.9 µM (inactive) | 18 µM (inactive) | 22.2 µM (inactive) |  | 20 µM (inactive) | 17.9 µM (inactive) | 17 µM (inactive) | 18.8 µM (inactive) | 16.7 µM (inactive) | 15.5 µM (inactive) | 16.7 µM (inactive) | 16.3 µM (inactive)
N#Cc1c(N)c(-c2ccc(Cl)cc2)c(F)c2ccccc12 | 6.65 µM (inactive) | > 100 µM (inactive) | > 100 µM (inactive) | > 100 µM (inactive) | 7 µM (inactive) | 75.5 µM (inactive) | > 100 µM (inactive) | > 100 µM (inactive) | > 100 µM (inactive) | > 100 µM (inactive) |  | > 100 µM (inactive) | > 100 µM (inactive) | > 100 µM (inactive) | > 100 µM (inactive) | 9.82 µM (inactive) | > 100 µM (inactive) | > 100 µM (inactive) | > 100 µM (inactive) | 
CC(C)(C)OC(=O)NCC(c1c[nH]c2ccc(Br)cc12)c1c[nH]c2ccc(Br)cc12 | > 100 µM (inactive) | 18.3 µM (inactive) | 6.64 µM (inactive) | 4.14 µM (inactive) | 4.52 µM (inactive) | 3.34 µM (inactive) | 8.04 µM (inactive) | 3.55 µM (inactive) | 5.18 µM (inactive) | 6.82 µM (inactive) |  | 11.7 µM (inactive) | 16.6 µM (inactive) | 9.89 µM (inactive) | 12.6 µM (inactive) | 8.43 µM (inactive) | 12.4 µM (inactive) | 7.36 µM (inactive) | 5.13 µM (inactive) | 5.12 µM (inactive)
O=C(c1cc(Cl)cc(Cl)c1)N1CCN(C(=O)c2cc(Cl)cc(Cl)c2)C1=S | 2.38 µM (inactive) | 11.6 µM (inactive) | 12.2 µM (inactive) | 16.4 µM (inactive) | 16.8 µM (inactive) | 20.2 µM (inactive) | 16.8 µM (inactive) | 13.9 µM (inactive) | 17.7 µM (inactive) |  | 3.26 µM (inactive) | 11.7 µM (inactive) | 23.7 µM (inactive) | 20.3 µM (inactive) | 10.7 µM (inactive) | 13.1 µM (inactive) | 24.9 µM (inactive) | 19.1 µM (inactive) | 11.9 µM (inactive) | 2.25 µM (inactive)
O=c1c(Cc2ccccc2Cc2c(O)oc3ccccc3c2=O)c(O)oc2ccccc12 | > 100 µM (inactive) | > 100 µM (inactive) | > 100 µM (inactive) | > 100 µM (inactive) | > 100 µM (inactive) | > 100 µM (inactive) | > 100 µM (inactive) | > 100 µM (inactive) | > 100 µM (inactive) | > 100 µM (inactive) |  | > 100 µM (inactive) | > 100 µM (inactive) | > 100 µM (inactive) | > 100 µM (inactive) | > 100 µM (inactive) | > 100 µM (inactive) | > 100 µM (inactive) | > 100 µM (inactive) | > 100 µM (inactive)
